Assay results published in paper PMC8338929, “Acetylation turns leucine into a drug by membrane transporter switching” (Scientific Reports, 2021).

Biological target: T1, Human OAT1 (SLC22A6) (Homo sapiens, UniProt Q4U2R8)
T1 construct: host or cells: HEK-293
T1 sequence (Q4U2R8 1-563): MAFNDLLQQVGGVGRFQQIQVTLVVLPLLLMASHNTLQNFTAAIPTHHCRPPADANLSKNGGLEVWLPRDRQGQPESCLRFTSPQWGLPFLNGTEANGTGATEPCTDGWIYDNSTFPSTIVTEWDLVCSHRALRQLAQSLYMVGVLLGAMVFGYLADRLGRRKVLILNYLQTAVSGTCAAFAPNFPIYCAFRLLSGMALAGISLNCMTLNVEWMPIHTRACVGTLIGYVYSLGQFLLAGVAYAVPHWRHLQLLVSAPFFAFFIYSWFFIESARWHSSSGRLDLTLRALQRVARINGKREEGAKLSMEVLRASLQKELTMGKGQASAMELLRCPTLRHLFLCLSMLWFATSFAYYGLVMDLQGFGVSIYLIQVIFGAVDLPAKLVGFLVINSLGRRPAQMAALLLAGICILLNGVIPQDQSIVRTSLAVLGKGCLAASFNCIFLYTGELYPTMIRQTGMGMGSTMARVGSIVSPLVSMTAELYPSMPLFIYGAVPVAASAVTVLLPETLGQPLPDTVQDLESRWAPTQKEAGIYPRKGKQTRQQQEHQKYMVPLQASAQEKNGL
Assay: OAT1-mediated cellular uptake in overexpressing HEK-293 cells
Assay type: cell-based
Procedure: Cells were grown in DMEM (Gibco 4196, high glucose, without sodium pyruvate) supplemented with MEM non-essential amino acids and 10% fetal bovine serum. Cells were re-fed with fresh medium after attachment (4–6 h post-seeding). Cell were plated at a density of 4 × 10^5/well in 24-well plates coated with poly-D-lysine. Transporter assays were conducted in 400 µL of HBSS supplemented with 10 mM Hepes, pH 7.4
The known probe substrates used as positive controls were 3 μM chlorothiazide for OAT1, 2 μM estrone-3-sulfate for OAT3, 10 µM [^3H]gabapentin for LAT1, 50 µM [^3H]Gly-Sar for PepT1, 500 µM thiophene-2-glyoxylic acid for MCT1. The known inhibitors used as controls for each transporter were 100 μM diclofenac for OAT1 and OAT3, 10 µM JPH203 for LAT1 and 200 µM losartan for PepT1. All incubations were in triplicate and contained 1% (OAT1 and OAT3) or 0.5% DMSO (LAT, PepT1 and MCT1). The duration of uptake was 5 min for OAT1 and OAT3, 3 min for LAT1 and PepT1 and 1 min for MCT1. Assays were performed at 37 °C with no shaking, except MCT1 at room temperature. To determine uptake due to the overexpressed transporter per se, uptake was taken as the difference between accumulation between transfected and nontransfected cells in parallel experiments at the same concentration and time. To terminate uptake the plate was placed on ice and cells washed twice with ice-cold transport buffer. […]

Vmax OAT1 uptake (Michaelis-Menten fit): 173 | substrate of OAT1 (uptake) (pH 7.4, 5 min): substrate
Compound: CC(=O)N[C@@H](CC(C)C)C(=O)O [N-acetyl-L-leucine]
